# Patent US12083105B2, “Compositions and methods for treating adult-onset neuronal ceroid lipofuscinosis (Kufs disease)” (CORNELL UNIVERSITY, priority 2020, dated 2024)
# Columns and labels:
# CSPα with SNAP-25 = test: Interaction of CSPα with SNAP-25 in ANCL iNs (SNAP-25 IP, co-IP of CSPα); type: cell-based, human; conditions: 72 h, compared to control, FIG. 7C
# Method: ANCL patient-derived fibroblasts were treated with 200 μM of L1 or Dfx, or vehicle (0.1% DMSO=Control) for 72 h, before measuring the UV-Vis absorbance spectra of immunoprecipitated CSPα eluted by trypsinization (solid lines). Spectra were re-read after 10 min of 0.1 N HCl treatment (dashed lines). The experiments shown in FIGS. 7B-7I, were conducted using ANCL fibroblasts converted to iNs using BAM+ND1 technique. […] Quantitative immunoblotting was used to measure levels of oligomerized and fully palmitoylated CSPα as well as total SNAP-25. Oligo=oligomers; Palm=palmitoylated. […] The interaction of CSPα with SNAP-25 in ANCL iNs was measured by immunoprecipitating SNAP-25 followed by quantitative immunoblotting of co-immunoprecipitated CSPα (normalized to SNAP-25 IP). Note that mainly CSPα monomers and not oligomers were detected bound to SNAP-25. Control=control sham IP without IgG. […] Turnover of SNAP-25 was determined by cycloheximide chase, while maintaining the iron-chelators or vehicle in the medium. […] In the experiments shown in FIGS. 7E-7G, ANCL iNs treated with L1, Dfx, or vehicle for 56 d and analyzed. […] The levels of lipofuscin were determined by ELISA. In the experiments shown in FIGS. 7H-7I 56 day old untreated ANCL iNs were treated with L1, Dfx, or vehicle, and analyzed. […]
# CSPα = CSPα oligomerization and palmitoylation in ANCL patient-derived induced neurons (quantitative immunoblotting); type: cell-based, human; conditions: ANCL iNs; 72 h; compared to vehicle alone; FIG. 7B
# Method: ANCL patient-derived fibroblasts were treated with 200 μM of L1 or Dfx, or vehicle (0.1% DMSO=Control) for 72 h, before measuring the UV-Vis absorbance spectra of immunoprecipitated CSPα eluted by trypsinization (solid lines). Spectra were re-read after 10 min of 0.1 N HCl treatment (dashed lines). The experiments shown in FIGS. 7B-7I, were conducted using ANCL fibroblasts converted to iNs using BAM+ND1 technique. […] Quantitative immunoblotting was used to measure levels of oligomerized and fully palmitoylated CSPα as well as total SNAP-25. Oligo=oligomers; Palm=palmitoylated. […] The interaction of CSPα with SNAP-25 in ANCL iNs was measured by immunoprecipitating SNAP-25 followed by quantitative immunoblotting of co-immunoprecipitated CSPα (normalized to SNAP-25 IP). Note that mainly CSPα monomers and not oligomers were detected bound to SNAP-25. Control=control sham IP without IgG. […] Turnover of SNAP-25 was determined by cycloheximide chase, while maintaining the iron-chelators or vehicle in the medium. […] In the experiments shown in FIGS. 7E-7G, ANCL iNs treated with L1, Dfx, or vehicle for 56 d and analyzed. […] The levels of lipofuscin were determined by ELISA. In the experiments shown in FIGS. 7H-7I 56 day old untreated ANCL iNs were treated with L1, Dfx, or vehicle, and analyzed. […] Data are from FIG. 7A representative of n=4, FIG. 7B n=4, FIG. 7C n=4, FIG. 7D n=7, FIG. 7F n=4, FIG. 7G n=4, FIG. 7H n=6, FIG. 7I n=3. In FIGS. 7B-7C and FIGS. 7F-7G *P<0.05; **P<0.01; ****P<0.0001 by two-tailed Student's t-test. #P<0.05 by Mann-Whitney-Wilcoxon U test. In FIG. 7D-7C and FIGS. 7H-7I **P<0.01; ***P<0.001; ****P<0.0001 by two-way ANOVA; ##P<0.01; ###P<0.001; ####P<0.0001 by Tukey's multiple comparisons test.
# For pharmacological iron-chelation, deferiprone (L1; 200 μM; Biotang), deferoxamine mesylate (Dfx; 200 μM; Calbiochem), or 0.1% DMSO as vehicle control were added to the respective culture media of primary cortical neurons, fibroblasts, or iNs. When these media were changed, the fresh media contained identical concentration of the respective iron-chelator or vehicle.
# Fibroblasts from an affected person carrying the L116Δ mutation were obtained, and an age-and-sex matched unaffected fibroblast line was frozen, thawed and cultured in parallel to maintain similar passage numbers. Fibroblasts were maintained in DMEM supplemented with 10% fetal bovine serum supplemented with L-glutamine, penicillin, and streptomycin. […]
# For SDS-PAGE, 10-15% Laemmli gels (10.3% T and 3.3% C) were used to separate proteins on Bio-Rad apparati. […] Immunoblots were washed 5× with TBS-T and dried, then scanned on Odyssey CLx (LI-COR) and quantified using Image-Studio software (LI-COR). […]
SMILES,interaction of CSPα with SNAP-25 (CSPα with SNAP-25),oligomerization of CSPα (CSPα),palmitoylation of CSPα (CSPα)
"CC(=O)N(O)CCCCCNC(=O)CCC(=O)N(O)CCCCCNC(=O)CCC(=O)N(O)CCCCCN [Dfx, N′-[5-(Acetyl-hydroxy-amino)pentyl]-N-[5-[3-(5-aminopentyl-hydroxy-carbamoyl)propanoylamino]pentyl]-N-hydroxy-butane diamide]",improved,reduced the oligomerization,improved palmitoylation
"Cc1c(O)c(=O)ccn1C [L1, 3-hydroxy-1,2-dimethyl-4(1H)-pyridone]",improved,reduced the oligomerization,improved palmitoylation
